Results on eight molecules are retold here after patent US4193997A, “Thieno[2,3-c] and [3,2-c]pyridines, process for their preparation and therapeutic applications thereof” (Parcor, priority 1977, dated 1980).

One test deals with A.D.P.-induced blood-platelet aggregation. Kind of test: A.D.P.-induced blood-platelet aggregation after oral treatment of rats. Format: in vivo, Wistar rats. The note with it: Rattus norvegicus, 100 mg/kg oral, 3 hrs after treatment, 10 μM A.D.P. solution, read-out: Percent inhibition of blood-platelet aggregation, A.D.P. How it is done:
(§1) Blood is taken from the jugular vein of Wistar rats. From this citrated blood, and after centrifugation, a plasma containing 600,000±20,000 blood-platelets per mm 3 is reconstituted, which plasma is used in all aggregation determinations.
(§2) 0.4 ml plasma is placed in a siliconized tube provided with a magnet bar which is also siliconized. The tube is introduced into an aggregometer connected to an apparatus which records the optical density variations. When light transmission reaches a stable value, 0.5 ml of a solution containing 10 μM A.D.P. (adenosine diphosphate) is introduced into the tube.
Blood-platelet aggregation then induces an increase of light transmission, followed by a decrease subsequent to the disaggregation stage.
The maximal optical density variation thus determined characterizes the extent of the aggregation.
(§3) Different groups of 20 rats each are used. Each group is orally administered a test derivative, at a dosage of 100 mg/kg. The results obtained during both tests are reported in following Table I which indicates the percent inhibition of blood-platelet aggregation obtained with respect to the reference group, 3 hrs after treatment.
Turning to `O=C1c2ccsc2CCN1Cc1ccccc1Cl` [Derivative n°1, 4-Oxo-5-o.chlorobenzyl-4,5,6,7-tetrahydro-thieno[3,2-c]pyridine], the inhibition at 100 mg/kg amounted to 60.4%.
With `N#Cc1ccccc1CN1CCc2sccc2C1=O` [Derivative n°8, 4-Oxo-5-o.cyanobenzyl-4,5,6,7-tetrahydro-thieno[3,2-c]pyridine], the inhibition at 100 mg/kg was found to be 60.8%.
Still for that read-out and setting: then `COC(=O)c1ccccc1CN1CCc2sccc2C1=O` [Derivative n°9, 4-Oxo-5-o,carbomethoxybenzyl-4,5,6,7-tetrahydro-thieno[3,2-c]-pyridine], with 61.6%; and `O=C(c1ccccc1Cl)N1CCc2ccsc2C1=O` [Derivative n°10, 6-o.Chlorobenzoyl-7-oxo-4,5,6,7-tetrahydro-thieno[2,3-c]pyridine], with 60.9%; and `O=C(OCc1ccccc1)C1Cc2sccc2C(=O)N1Cc1ccccc1` (stereo not shown) [Derivative n°13, 4-Oxo-6-benzyloxycarbonyl-5-benzyl-4,5,6,7-tetrahydro-thieno[3,2-c]pyridine], with 63.4%.
Take `O=C(O)C1Cc2sccc2C(=O)N1Cc1ccccc1` (stereo not shown) [Derivative n°14, 4-Oxo-6-carboxy-5-benzyl-4,5,6,7-tetrahydro-thieno[3,2-c]-pyridine]: the inhibition at 100 mg/kg was 60.5%.
For the molecule `COc1cc(CN2C(=O)c3ccsc3CC2C(=O)O)cc(OC)c1OC` (stereo not shown) [Derivative n°16, 4-Oxo-6-carboxy-5-(3,4,5-trimethoxy-benzyl)-4,5,6,7-tetrahydro-thieno[3,2-c]pyridine], the inhibition at 100 mg/kg was 62.4%.
Consider `O=C1NCC(c2ccccc2)c2ccsc21` (stereo not shown) [Derivative n°18, 4-Phenyl-7-oxo-4,5,6,7-tetrahydro-thieno[2,3-c]pyridine], for which the inhibition at 100 mg/kg was 60.6%.

Another test concerns collagen-induced blood-platelet aggregation. Nature of the test: Collagen-induced blood-platelet aggregation after oral treatment of rats. Format: in vivo, Wistar rats. The note with it: Rattus norvegicus, 100 mg/kg oral, 3 hrs after treatment, collagen (bovine tendon extract), read-out: Percent inhibition of blood-platelet aggregation, Collagen. How it is done:
as §1, §2
The A.D.P. solution is substituted with a collagen solution (bovine tendon extract).
as §3
`O=C1c2ccsc2CCN1Cc1ccccc1Cl` [Derivative n°1, 4-Oxo-5-o.chlorobenzyl-4,5,6,7-tetrahydro-thieno[3,2-c]pyridine]: the inhibition at 100 mg/kg worked out at 90%.
In the case of `N#Cc1ccccc1CN1CCc2sccc2C1=O` [Derivative n°8, 4-Oxo-5-o.cyanobenzyl-4,5,6,7-tetrahydro-thieno[3,2-c]pyridine], the inhibition at 100 mg/kg is 91%.
For the molecule `COC(=O)c1ccccc1CN1CCc2sccc2C1=O` [Derivative n°9, 4-Oxo-5-o,carbomethoxybenzyl-4,5,6,7-tetrahydro-thieno[3,2-c]-pyridine], the inhibition at 100 mg/kg was found to be 90.8%.
On to `O=C(c1ccccc1Cl)N1CCc2ccsc2C1=O` [Derivative n°10, 6-o.Chlorobenzoyl-7-oxo-4,5,6,7-tetrahydro-thieno[2,3-c]pyridine], for which the inhibition at 100 mg/kg came out at 92.2%.
Take `O=C(OCc1ccccc1)C1Cc2sccc2C(=O)N1Cc1ccccc1` (stereo not shown) [Derivative n°13, 4-Oxo-6-benzyloxycarbonyl-5-benzyl-4,5,6,7-tetrahydro-thieno[3,2-c]pyridine]: the inhibition at 100 mg/kg stood at 91.9%.
As for `O=C(O)C1Cc2sccc2C(=O)N1Cc1ccccc1` (stereo not shown) [Derivative n°14, 4-Oxo-6-carboxy-5-benzyl-4,5,6,7-tetrahydro-thieno[3,2-c]-pyridine], the inhibition at 100 mg/kg is 93%.
For `COc1cc(CN2C(=O)c3ccsc3CC2C(=O)O)cc(OC)c1OC` (stereo not shown) [Derivative n°16, 4-Oxo-6-carboxy-5-(3,4,5-trimethoxy-benzyl)-4,5,6,7-tetrahydro-thieno[3,2-c]pyridine], the inhibition at 100 mg/kg turned out to be 90.5%.
Take `O=C1NCC(c2ccccc2)c2ccsc21` (stereo not shown) [Derivative n°18, 4-Phenyl-7-oxo-4,5,6,7-tetrahydro-thieno[2,3-c]pyridine]: the inhibition at 100 mg/kg is 91.4%.
